# Measurements as given in patent publication US5480885A, “Ergoline derivatives of 1-propinylamine, a process for the manufacture thereof and the use thereof for medicaments” (priority 1991, dated 1996).
# Entries after “also recorded” stand apart in the source; their conditions may differ. Like-named read-outs stand apart in the source and are kept apart here.
# Experiments:
# [1] = spontaneous motor activity in mice; format: in vivo; details: mouse, in vivo, ip; mice; read-out: ID50, inhibition of spontaneous motor activity
# mice = assay: spontaneous motor activity in mice; format: in vivo; details: two models (motor activity and pentobarbital anesthesia); vs haloperidol; in words
# isolated rat uterus = assay: uterotonic activity (isolated rat uterus); details: in words
# pithed rats = assay: vasoconstriction / diastolic pressure in pithed rats (Gillespie); format: in vivo, rat; details: vs control
# acetylcholine receptors = assay: oxotremorine-induced tremor in mice; format: in vivo; details: 20 to 70 mg/kg i.p.; oxotremorine 1.5 mg/kg s.c.; in words
# D2 receptor = D2 receptor (Homo sapiens, UniProt P14416); assay: binding, [^3 H]Raclopride; details: for Ki: D2, [^3 H]Raclopride; for affinity for D2 receptors: in words
# Text: (§1) Binding affinities of the compounds of Examples 1
# D2 receptors [2] = target: T1, D2 receptors (Rattus norvegicus, UniProt P61169); assay: apomorphine-induced locomotion; format: in vivo; details: sc, -45 min., apomorphine 0.4 mg/kg s.c., rats, read-out: ID50, apomorphine-induced locomotion
# T1 construct: from tissue; host or cells: living rats (central nervous system)
# [3] = tested on: isolated rabbit vena cava (noradrenaline); assay: inhibition of noradrenaline venous constriction on the isolated rabbit vena cava; details: vs noradrenaline
# [4] = blood pressure and heart rate in pentobarbital-anesthetized normotensive rats; format: in vivo, rat; details: rat, in vivo, iv; normotensive rats, pentobarbital-induced anesthesia; read-out: ED50, decrease of the mean arterial blood pressure
# [5] = tested on: pentobarbital-anesthetized normotensive rats; assay: as above; format: in vivo, rat; details: 450 μg/kg i.v.; for maximum reduction in carotid artery pressure / reduction in heart rate: vs initial level
# [6] = overall antipsychotic action and side-effect profile (summary statements); format: in vivo; details: in words
# pupil = assay: dilatation of the pupil in mice (Pulewka); format: in vivo; details: 5 mg/kg i.p.; in words
# [7] = tested on: isolated rabbit thoracic aorta (noradrenaline); assay: inhibition of the constrictive activity of noradrenaline on the isolated rabbit thoracic aorta
# [8] = prolongation of pentobarbital-induced anesthesia in mice; details: mouse, in vivo, ip
# M1 muscarinic receptor [9] = assay: binding at [^3 H] pirenzepine binding site; details: in words
# D1 receptor = D1 receptor (Homo sapiens, UniProt P21728); assay: binding, [^3 H]SCH23390
# Text: (§2) Binding affinities of the compounds of Examples 5
# [10] = tested on: isolated rat uterus (serotonin); assay: inhibition of serotonin-induced contractions of the isolated rat uterus; details: serotonin-induced contractions (serotonin 2.47×10^-8 M where printed)
# α1 receptor = assay: binding, [^3 H]Prazosin
# Text: as §2
# [11] = tested on: isolated rabbit vena cava inferior; assay: venous constriction on the isolated rabbit vena cava inferior; details: 1×10^-7 M; in words
# [12] = target: T2, isolated rabbit thoracic aorta (serotonin) (Oryctolagus cuniculus, UniProt G1SYA7); details: for mode of inhibition of serotonin constriction: in words
# T2 construct: isolated rabbit thoracic aorta; from tissue; host or cells: isolated rabbit thoracic aorta
# D2 receptors [13] = target: T3, D2 receptors (Mus musculus, UniProt P61168); assay: apomorphine-induced climbing in mice; format: in vivo; details: ip, -30 min., apomorphine 1.5 mg/kg s.c., read-out: ID50, climbing behavior
# T3 construct: from tissue; host or cells: living mice (central nervous system)
# Experimental: The application of apomorphine in a dose of 1.5 mg/kg s.c. caused a characteristic climbing behavior in mice.
# catalepsy in rats = format: in vivo, rat; details: rat, in vivo, sc; rats
# Experimental: (§3) The s.c. application of the compounds of Example 5 (0.5 to 16 mg/kg) and of Example 8 (0.125 to 4 mg/kg), respectively, caused catalepsy in rats (the method was described by Morelli and Chiara, Europ. J. Pharmacol. 117, 179-185, 1985).
# rats = assay: catalepsy in rats; format: in vivo, rat; details: in words
# Experimental: as §3
# [14] = tested on: urethane-anestetized normotensive rats; assay: adrenaline-induced vasopressoric response in urethane-anesthetized normotensive rats; format: in vivo, rat; details: 450 μg/kg i.v.; adrenaline 10 μg/kg i.v.
# Experimental: In urethane-anestetized normotensive rats the compound (450 μg/kg, i.v.) intensified the adrenaline (10 μg/kg, i.v.)-induced vasopressoric response.
# sigma receptor [15] = assay: functional test, sigma receptor; details: in words
# [16] = target: T4, 5-HT1A serotoninergic receptor (Homo sapiens, UniProt P08908); assay: binding at [^3 H] 8-OH-DPAT binding site; details: for affinity to 5-HT1A receptor: [^3 H] 8-OH-DPAT, in words
# T4 sequence (P08908 1-422): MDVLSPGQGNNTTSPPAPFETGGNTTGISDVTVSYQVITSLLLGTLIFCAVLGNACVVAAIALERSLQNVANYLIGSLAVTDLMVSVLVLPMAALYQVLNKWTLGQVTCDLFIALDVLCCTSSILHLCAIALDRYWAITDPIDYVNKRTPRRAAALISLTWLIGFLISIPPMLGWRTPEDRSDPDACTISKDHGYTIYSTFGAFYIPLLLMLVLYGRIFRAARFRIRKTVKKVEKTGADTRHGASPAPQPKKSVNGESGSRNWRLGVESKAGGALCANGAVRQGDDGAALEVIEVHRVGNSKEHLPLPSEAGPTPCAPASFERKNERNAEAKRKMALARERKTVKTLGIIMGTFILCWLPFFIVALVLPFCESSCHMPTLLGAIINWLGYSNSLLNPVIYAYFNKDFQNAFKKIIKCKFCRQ
# Text: as §1
# [17] = target: T4, 5-HT1A serotoninergic receptor; assay: functional test, 5-HT1A serotoninergic receptor; details: in words
# M1 muscarinic receptor [18] = assay: functional test, M1 muscarinic receptor; details: in words
# 5-HT2 receptor = 5-HT2 receptor (Homo sapiens, UniProt P28223); assay: biochemical; format: binding; details: for affinity for 5-HT2 receptors: in words
# Text: as §1
# sigma receptor [19] = assay: binding at [^3 H] DTG binding site; details: in words
# α1 receptors = assay: noradrenaline-induced lethality in rats; format: in vivo, rat; details: s.c.
# 5-HT2 receptors = target: T5, 5-HT2 receptors (Mus musculus, UniProt P35363); assay: inhibition of the head twitch response after 5-HTP/carbidopa; format: in vivo, mice; details: ip, mice, 5-hydroxytryptophan/carbidopa, read-out: ID50, inhibition of head twitch response
# T5 construct: The head twitch model in mice; from tissue; host or cells: living mice (central nervous system)
# Experimental: The substance was injected 15 minutes prior to DL-5-HTP. The head twitch was recorded from 30 to 35 minutes after the DL-5-HTP injection (modified method according to Handley and Singh, Br. J. Pharmacol. 86, 297 (1985)).
# The compound was injected 15 minutes prior to L-5-HTP (modified method according to Handley and Singh, Br. J. Pharmacol. 86, 297 (1985)).
# The head twitch model in mice represents an experimental model for determining the hallucinogenic action of a compound (the method was described by Handley and Singh, Br.J.Pharmacol., 86, 297-303, 1985). It is believed that the response is conveyed via the 5-HT2 receptors.
# 5-HT1A receptors [20] = assay: inhibition of 8-OH-DPAT-caused spontaneous tail-flick in rats; format: in vivo, rat; details: in words
# uterus in rats = assay: blocking of spontaneous uterus contractions in rats; details: Rattus norvegicus; 1000 ng/ml
# Experimental: At a concentration of 1000 ng/ml it caused a 100% blocking of spontaneous uterus contractions in rats (see Jalon).
# 5-HT1A receptors [21] = assay: spontaneous tail-flicks in rats; format: in vivo, rat; details: 0.08 to 0.63 mg/kg s.c. (Example 1); 5.0 mg/kg s.c. (Example 2); in words
# Chain of D2 receptor (P14416 whole entry): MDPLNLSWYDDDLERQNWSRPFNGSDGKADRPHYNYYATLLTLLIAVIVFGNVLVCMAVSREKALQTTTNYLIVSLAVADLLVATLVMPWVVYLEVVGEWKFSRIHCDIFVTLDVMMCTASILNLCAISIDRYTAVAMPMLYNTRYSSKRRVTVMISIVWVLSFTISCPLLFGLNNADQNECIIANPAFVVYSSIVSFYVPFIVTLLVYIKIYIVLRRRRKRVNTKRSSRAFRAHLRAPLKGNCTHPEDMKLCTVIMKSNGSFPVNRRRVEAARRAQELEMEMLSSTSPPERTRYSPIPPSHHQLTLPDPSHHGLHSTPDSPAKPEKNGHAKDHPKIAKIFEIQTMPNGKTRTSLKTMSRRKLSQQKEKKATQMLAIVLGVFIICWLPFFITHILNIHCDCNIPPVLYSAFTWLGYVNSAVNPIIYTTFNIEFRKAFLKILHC
# Chain of 5-HT2 receptor (P28223 whole entry): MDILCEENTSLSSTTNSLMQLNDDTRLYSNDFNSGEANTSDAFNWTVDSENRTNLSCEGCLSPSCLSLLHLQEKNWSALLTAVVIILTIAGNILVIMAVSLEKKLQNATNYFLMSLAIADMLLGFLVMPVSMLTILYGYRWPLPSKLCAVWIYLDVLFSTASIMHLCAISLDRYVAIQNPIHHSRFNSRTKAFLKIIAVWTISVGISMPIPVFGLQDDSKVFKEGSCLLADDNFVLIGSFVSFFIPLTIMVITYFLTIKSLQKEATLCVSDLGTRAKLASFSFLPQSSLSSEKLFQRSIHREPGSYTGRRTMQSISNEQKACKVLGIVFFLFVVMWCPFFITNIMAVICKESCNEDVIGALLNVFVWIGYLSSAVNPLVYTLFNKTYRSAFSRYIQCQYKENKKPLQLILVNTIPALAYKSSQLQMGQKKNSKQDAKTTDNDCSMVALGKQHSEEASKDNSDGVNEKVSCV
# T2 sequence (G1SYA7 entry or part of it): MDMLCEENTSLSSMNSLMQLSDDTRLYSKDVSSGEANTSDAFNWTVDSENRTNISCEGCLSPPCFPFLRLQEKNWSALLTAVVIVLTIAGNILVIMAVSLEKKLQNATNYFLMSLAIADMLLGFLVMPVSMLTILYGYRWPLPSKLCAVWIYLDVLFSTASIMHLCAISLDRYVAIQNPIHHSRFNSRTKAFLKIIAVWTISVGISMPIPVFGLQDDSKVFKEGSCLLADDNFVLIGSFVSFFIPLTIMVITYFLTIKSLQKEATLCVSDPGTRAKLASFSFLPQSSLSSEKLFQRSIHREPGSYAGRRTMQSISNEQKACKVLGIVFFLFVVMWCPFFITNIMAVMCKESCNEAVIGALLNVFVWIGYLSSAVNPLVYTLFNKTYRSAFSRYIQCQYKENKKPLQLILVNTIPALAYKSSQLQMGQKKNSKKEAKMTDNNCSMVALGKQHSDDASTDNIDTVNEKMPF
# Chain of D1 receptor (P21728 whole entry): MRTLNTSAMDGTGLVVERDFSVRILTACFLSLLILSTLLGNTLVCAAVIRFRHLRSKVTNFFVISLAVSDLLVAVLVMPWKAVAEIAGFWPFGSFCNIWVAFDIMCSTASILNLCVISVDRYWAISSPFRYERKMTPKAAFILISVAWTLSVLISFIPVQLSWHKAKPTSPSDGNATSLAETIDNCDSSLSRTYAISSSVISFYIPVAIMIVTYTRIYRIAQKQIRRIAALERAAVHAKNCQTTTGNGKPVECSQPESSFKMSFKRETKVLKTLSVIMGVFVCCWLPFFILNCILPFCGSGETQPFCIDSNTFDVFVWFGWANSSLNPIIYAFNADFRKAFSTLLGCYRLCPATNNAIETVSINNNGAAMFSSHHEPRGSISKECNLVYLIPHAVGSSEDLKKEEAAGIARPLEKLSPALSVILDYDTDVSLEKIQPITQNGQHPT
# T1 sequence (P61169 whole entry): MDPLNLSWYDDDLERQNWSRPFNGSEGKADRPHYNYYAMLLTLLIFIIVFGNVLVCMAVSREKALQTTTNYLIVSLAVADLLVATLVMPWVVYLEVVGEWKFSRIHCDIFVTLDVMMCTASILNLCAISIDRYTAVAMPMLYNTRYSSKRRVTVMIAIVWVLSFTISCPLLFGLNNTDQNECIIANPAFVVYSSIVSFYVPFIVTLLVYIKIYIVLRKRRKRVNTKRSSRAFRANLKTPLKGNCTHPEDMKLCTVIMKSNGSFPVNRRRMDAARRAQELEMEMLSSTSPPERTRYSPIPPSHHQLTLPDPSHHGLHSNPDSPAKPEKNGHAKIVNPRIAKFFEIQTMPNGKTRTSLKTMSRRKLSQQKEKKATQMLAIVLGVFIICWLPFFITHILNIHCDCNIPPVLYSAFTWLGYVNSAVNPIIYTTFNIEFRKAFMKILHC
# T5 sequence (P35363 whole entry): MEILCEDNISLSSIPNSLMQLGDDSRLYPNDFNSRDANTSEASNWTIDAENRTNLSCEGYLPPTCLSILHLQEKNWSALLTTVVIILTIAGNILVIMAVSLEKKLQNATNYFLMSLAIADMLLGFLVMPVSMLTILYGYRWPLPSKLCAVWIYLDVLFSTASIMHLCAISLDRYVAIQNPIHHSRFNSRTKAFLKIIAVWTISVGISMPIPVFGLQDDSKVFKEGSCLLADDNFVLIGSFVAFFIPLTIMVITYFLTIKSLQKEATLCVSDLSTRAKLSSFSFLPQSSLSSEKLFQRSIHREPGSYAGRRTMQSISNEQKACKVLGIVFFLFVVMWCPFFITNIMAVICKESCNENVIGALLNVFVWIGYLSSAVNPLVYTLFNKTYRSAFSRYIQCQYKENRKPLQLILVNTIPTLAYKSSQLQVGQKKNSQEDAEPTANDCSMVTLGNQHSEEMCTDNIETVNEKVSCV
# T3 sequence (P61168 whole entry): as the sequence (P61169 whole entry) above, with A29P counted along it
compound,measurement,setting,value
C#CCN(C)C[C@@H]1C=C2c3cccc4[nH]cc(c34)C[C@H]2N(C)C1 [Example 8],ED50,[1],8.4 mg/kg
same,depressant action on the level of CNS,mice,several times lower depressant action on the level of CNS if compared with haloperidol
same,uterotonic activity,isolated rat uterus,no uterotonic activity
same,mean increase in diastolic pressure,pithed rats; 450 μg/kg i.v.,20%
same,inhibition of oxotremorine-induced tremor,acetylcholine receptors,dose-dependent inhibition
same,Ki,D2 receptor,3.8 nM
same,affinity for D2 receptors,D2 receptor,high affinity
same,ED50,D2 receptors [2],0.089 mg/kg
same,pA2,[3],6.63
same,ED50,[4],0.37 mg/kg
same,effect on carotid artery pressure,[5]; in words,strong and sustained decrease in carotid artery pressure
same,maximum reduction in carotid artery pressure,[5],20%
same,reduction in heart rate,[5],less than 20%
same,antipsychotic action,[6],strongest antipsychotic action
same,side effect liability,[6],"lesser degree of probability of the development of extrapyramidal, central depressant and hypotensive side effects"
same,dilatation of the pupil,pupil,strong dilatation of the pupil
same,mode of inhibition of noradrenaline constriction,[7]; in words,competitively inhibited
same,pA2,[7]; vs noradrenaline,6.39
same,ED50,[8],17.1 mg/kg
same,affinity to M1 muscarinic receptor,M1 muscarinic receptor [9],possessed affinity
same,Ki,"D1 receptor; D1, [^3 H]SCH23390",87 nM
same,affinity for D1 receptors,D1 receptor; in words,lower
same,IC50,[10],1.85 nM
same,affinity for α1 receptors,α1 receptor; in words,lower
same,Ki,"α1 receptor; α1, [^3 H]Prazosin",245 nM
same,venous constriction,[11],minimal venous constriction
same,Kb,[12],0.741 nM
same,mode of inhibition of serotonin constriction,[12],competitively inhibited
same,ED50,D2 receptors [13],0.44 mg/kg
same,ED50,catalepsy in rats,0.29 mg/kg
same,cataleptic action compared with haloperidole,rats,lesser than the action caused by the typical antipsychotic haloperidole
same,effect on adrenaline-induced vasopressoric response,[14],intensified
same,functional activity at sigma receptor,sigma receptor [15],indicated an antagonistic activity
same,affinity to 5-HT1A receptor,[16],possessed affinity
same,functional activity at 5-HT1A,[17],did not indicate any activity
same,functional activity at M1 muscarinic receptor,M1 muscarinic receptor [18],indicated an antagonistic activity
same,Ki,5-HT2 receptor,10 nM
same,affinity for 5-HT2 receptors,5-HT2 receptor,high affinity
same,affinity to sigma receptor,sigma receptor [19],possessed affinity
same,"ID50, noradrenaline-induced lethality",α1 receptors,3.75 mg/kg
"C#CCNC(=O)[C@@H]1C=C2c3cccc4[nH]c(Br)c(c34)C[C@H]2N(C)C1 [Example 2, 2-Bromo-9,10-didehydro-N-(2'-propinyl)-6-methylergoline-8β-carboxamide]",ED50,5-HT2 receptors,8.2 mg/kg
same,mean increase of the diastolic pressure,pithed rats; 450 μg/kg i.p.,20%
same,Ki,D2 receptor,44 nM
same,affinity for D2 receptors,D2 receptor,high affinity
same,duration of the transient effect,[5],up to 20 minutes
same,maximum reduction in carotid artery pressure,[5],15%
same,reduction in heart rate,[5],5%
same,dilatation of the pupil,pupil,marked dilatation of the pupil
same,inhibition of 8-OH-DPAT-caused spontaneous tail-flick,"5-HT1A receptors [20]; 0.63 to 5.0 mg/kg s.c., 8-OH-DPAT 2.5 mg/kg s.c.",strongly inhibit the spontaneous tail-flick in rats
same,effect in tail-flick inhibition model compared with buspirone,5-HT1A receptors [20],very similar to that of buspirone
same,IC50,[10],26.9 nM
same,mode of inhibition of serotonin constriction,[12],competitively inhibited
same,Kb,"[12]; vs serotonin, read-out: pA2 (converted)",7.41 nM
same,functional activity at sigma receptor,sigma receptor [15],indicated an antagonistic activity
same,Ki,"[16]; 5-HT1A, [^3 H]8-OH-DPAT",206 nM
same,affinity to 5-HT1A receptor,[16],somewhat lower affinity; also recorded: possessed affinity
same,inhibition at 1 µg/mL,uterus in rats,100%
same,functional activity at 5-HT1A,[17],did not indicate any activity
same,spontaneous tail-flick,5-HT1A receptors [21],did not cause a spontaneous tail-flick in rats
same,Ki,"5-HT2 receptor; 5-HT2, [^3 H]Ketanserin, read-out: Ki",90 nM
same,affinity for 5-HT2 receptors,5-HT2 receptor,high affinity
same,affinity to sigma receptor,sigma receptor [19],possessed affinity
